Earlier results as cited in patent publication US11633460B2, “Injectable solution at pH 7 comprising at least one basal insulin wherein the pI is comprised from 5.8 to 8.5 and a co-polyamino acid bearing carboxylate charges and hydrophobic radicals” (ADOCIA, priority 2017, dated 2023).

Conditions: patients, background statement

Substance: insulin glargine
- Period over which the hypoglycemic effect is quasi-constant: 24 h
